This note sets out measurements from ChEMBL document CHEMBL1145768, “Microsomal triglyceride transfer protein inhibitors: discovery and synthesis of alkyl phosphonates as potent MTP inhibitors and cholesterol lowering agents” (Bioorg Med Chem Lett, 2003).

For test [1], the target named is T1, Microsomal triglyceride transfer protein large subunit (Bos taurus, UniProt P55156).
T1 sequence (P55156 whole entry): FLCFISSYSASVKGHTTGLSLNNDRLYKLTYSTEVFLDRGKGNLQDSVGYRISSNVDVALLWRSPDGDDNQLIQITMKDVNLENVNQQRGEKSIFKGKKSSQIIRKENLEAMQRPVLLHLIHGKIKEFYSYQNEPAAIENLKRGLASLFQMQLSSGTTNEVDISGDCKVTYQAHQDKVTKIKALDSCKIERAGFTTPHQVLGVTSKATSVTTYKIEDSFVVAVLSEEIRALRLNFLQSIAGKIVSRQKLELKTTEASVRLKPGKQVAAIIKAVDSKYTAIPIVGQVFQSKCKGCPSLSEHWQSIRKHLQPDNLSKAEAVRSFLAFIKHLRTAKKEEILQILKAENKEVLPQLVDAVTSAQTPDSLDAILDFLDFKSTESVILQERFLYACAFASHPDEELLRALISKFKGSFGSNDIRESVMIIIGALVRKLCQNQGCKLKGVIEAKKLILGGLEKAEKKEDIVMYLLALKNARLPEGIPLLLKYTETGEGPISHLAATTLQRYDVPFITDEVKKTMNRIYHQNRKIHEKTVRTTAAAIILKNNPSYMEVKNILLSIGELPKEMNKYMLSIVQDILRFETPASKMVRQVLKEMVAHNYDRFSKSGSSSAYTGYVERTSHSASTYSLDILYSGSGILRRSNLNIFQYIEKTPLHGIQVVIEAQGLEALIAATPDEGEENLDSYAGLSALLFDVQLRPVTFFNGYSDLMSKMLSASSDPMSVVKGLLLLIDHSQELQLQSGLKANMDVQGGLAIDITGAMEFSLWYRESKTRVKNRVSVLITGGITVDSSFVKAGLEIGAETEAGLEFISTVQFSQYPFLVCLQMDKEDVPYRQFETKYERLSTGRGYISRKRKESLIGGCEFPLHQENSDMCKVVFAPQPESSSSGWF
The experiment in a line: Inhibitory activity against microsomal triglyceride transfer protein (MTP).

For test [2], the system named is Cricetinae gen. sp. The experiment in a line: Inhibitory activity against plasma cholesterol level after oral administration (15 mg/kg/day) over 3 days in hamsters. It is filed as functional, Cricetulus griseus.
Test [3] has as its system HepG2. The experiment in a line: Effective concentration against secretion of apolipoprotein B (ApoB) from HepG2 cell using apolipoprotein secretion assay. To be noted: Homo sapiens. It is filed as functional, cell-based.
Test [4] relates to HepG2. As to the kind of experiment: Effective concentration against secretion of apolipoprotein A1 (ApoA1) from HepG2 cell using apolipoprotein secretion assay. It is filed as functional, cell-based. To be noted: Homo sapiens.
The subject of test [5] is HepG2. As to the kind of experiment: Effective concentration against apolipoprotein B (ApoB) from HepG2 cell using apolipoprotein secretion assay. It is filed as functional, cell-based. To be noted: Homo sapiens.
Test [6] concerns HepG2. As to the kind of experiment: Effective concentration against apolipoprotein A1 (ApoA1) from HepG2 cell using apolipoprotein secretion assay. To be noted: Homo sapiens. It is filed as functional, cell-based.
In test [7] the test system is Rattus norvegicus. The experiment in a line: Effective dose for inhibition of lipoprotein production (in vivo) after intravenous administration using fasted triton rat assay. It is filed as functional.
Test [8] concerns Cricetinae gen. sp. The experiment in a line: Inhibitory activity against plasma cholesterol level after oral administration (qd) (100 mg/kg) for 3 days in hamsters. It is filed as functional, Cricetulus griseus.
Test [9] deals with Rattus norvegicus. As to the kind of experiment: Effective dose for inhibition of lipoprotein production (in vivo) after oral administration using fasted triton rat assay. It is filed as functional.
In test [10] the test system is Cricetinae gen. sp. The experiment in a line: Inhibitory activity against plasma cholesterol level after oral administration (15 mg/kg/day) in hamsters. It is filed as functional, Cricetulus griseus.
For test [11], the system named is Rattus norvegicus. As to the kind of experiment: Inhibitory activity (25 mg/kg) against hepatic lipoprotein secretion. It is filed as functional.
Test [12] has as its system Rattus norvegicus. As to the kind of experiment: Ability to inhibit lipoprotein production (in vivo) after oral administration (50 mg/kg) using fasted triton rat assay;IA: inactive. It is filed as functional, organism-based.

The source made the active and inactive calls. No cut-off for these calls is given here. Where only a bound is given, the exact number is not on record here.

As to `CCCCOP(=O)(CCCCC1(C(=O)NCc2ccc(N)cc2)c2ccccc2-c2ccccc21)OCCCC`, half-maximal inhibition in test [1] (IC50) was put at 890 nM. In other words, the sub-micromolar range.
Compound `CCCOP(=O)(CCCCC1(C(=O)NCC(F)(F)F)c2ccccc2-c2ccccc21)OCCC` registered an IC50 in test [1] of 90 nM. Compared with the last compound, the IC50 is about 9.9-fold lower.
In the test with Cricetinae gen. sp. [2], `Cc1cccc(COP(=O)(CCCCC2(C(=O)NCC(F)(F)F)c3ccccc3-c3ccccc32)OCc2cccc(C)n2)n1` registered an Inhibition of 35%. This compound yielded an IC50 in [1] of 11 nM.
In the case of `O=C(NCC(F)(F)F)C1(CCCCP(=O)(OCCc2ccccn2)OCCc2ccccn2)c2ccccc2-c2ccccc21`, the IC50 in test [1] stood at 40 nM.
The same measure, in the same setting: the figure for `O=C1c2ccccc2CN1C1CCN(CCC(c2ccccc2)c2ccccc2)CC1` is 2200 nM.
For `CCCCOP(=O)(CCCCC1(C(=O)NCc2ccccc2)c2ccccc2-c2ccccc21)OCCCC`, the EC50 was 58 nM in the test with HepG2 [3] and more than 1000 nM in the test with HepG2 [4]. This compound also displayed an IC50 in [1] of 250 nM.
`CC(C)OP(=O)(CCCCC1(C(=O)NCC(F)(F)F)c2ccccc2-c2ccccc21)OC(C)C`: the IC50 in test [1] turned out to be 280 nM.
With `CCCCOP(=O)(CCCCCCC1(C(=O)NCC(F)(F)F)c2ccccc2-c2ccccc21)OCCCC`, half-maximal inhibition in test [1] (IC50) was put at 45 nM. Against the preceding compound, the IC50 is about 6.2-fold lower.
`CCCCOP(=O)(CCCSc1ccncc1)OCCCC` displayed an IC50 in test [1] of 27000 nM.
With `CCCCOP(=O)(CCCSc1nc(-c2ccccc2)c(-c2ccccc2)[nH]1)OCCCC`, in test [1], the IC50 is more than 30000 nM.
Take `O=C(NC1CCN(CCCC2(C(=O)NCC(F)(F)F)c3ccccc3-c3ccccc32)CC1)c1ccccc1`: the EC50 in the test with HepG2 [5] is 80 nM; in the test with HepG2 [6] it was more than 3300 nM. In [1], this compound returned an IC50 of 230 nM.
In turn, `CCCCOP(=O)(CCCSc1cccs1)OCCCC` registered an IC50 in test [1] of more than 100000 nM.
Compound `CCCCOP(=O)(CCCCC1(C(=O)NCCN2CCOCC2)c2ccccc2-c2ccccc21)OCCCC` registered an IC50 in test [1] of 500 nM.
Still for that read-out and setting: the figure for `CCCCOP(=O)(CCCOc1cccc2ccccc12)OCCCC` is 30000 nM.
The same measure, in the same setting: the figure for `O=C(NCC(F)(F)F)C1(CCCCP(=O)(OCc2ccccn2)OCc2ccccn2)c2ccccc2-c2ccccc21` is 27 nM.
Still for that read-out and setting: in the case of `CCCCOP(=O)(CCCOc1ccccc1)OCCCC` it was 4800 nM; in that of `CCCNC(=O)C1(CCCCP(=O)(OCC)OCC)c2ccccc2-c2ccccc21`, 135 nM.
Take `O=C(NCC(F)(F)F)C1(CCCCP(=O)(OCc2cccnc2)OCc2cccnc2)c2ccccc2-c2ccccc21`: in test [1], the IC50 worked out at 24 nM.
In the case of `CCCCOP(=O)(CCCCC1(C(=O)NCC(F)(F)F)c2ccccc2-c2ccccc21)OCCCC`, the EC50 with HepG2 [3] was 7 nM; in the test on HepG2 [4], more than 3300 nM. Moreover, the ED30 with Rattus norvegicus [7] came to 4 mg/kg; in the test with Rattus norvegicus [9] it was 8 mg/kg. Further, in the test on Cricetinae gen. sp. [8], the Inhibition was 15%. Besides, the IC50 in test [1] came to 22 nM.
Turning to `O=C(NCC(F)(F)F)C1(CCCCP(=O)(OCc2ccncc2)OCc2ccncc2)c2ccccc2-c2ccccc21`, 85 nM corresponded to half-maximal inhibition in test [1] (IC50).
Consider `CCCCOP(=O)(CCCCCSc1nc2ccc(OCC)cc2s1)OCCCC`, for which the IC50 in test [1] is 6000 nM.
Same read-out and setting: in the case of `CCCCOP(=O)(CCCSc1nc(-c2ccccc2)c(-c2ccccc2)o1)OCCCC` it was 6000 nM.
Take `CCCCOP(=O)(CCCCC1(C(=O)NCc2ccccn2)c2ccccc2-c2ccccc21)OCCCC`: the IC50 in test [1] stood at 470 nM.
In [1], `CCOP(=O)(CCCCC1(C(=O)NCC(F)(F)F)c2ccccc2-c2ccccc21)OCC` had an IC50 of 145 nM.
Compound `CCCCNC(=O)C1(CCCCP(=O)(OCCCC)OCCCC)c2ccccc2-c2ccccc21` returned an IC50 in test [1] of 400 nM.
For `O=C(NCC(F)(F)F)C1(CCCCP(=O)(OCCCc2ccccn2)OCCCc2ccccn2)c2ccccc2-c2ccccc21`, in the test on Cricetinae gen. sp. [10], the Inhibition is 15%. The compound further showed an IC50 in test [1] of 25 nM.
On to `Cc1cccc(CCCOP(=O)(CCCCC2(C(=O)NCC(F)(F)F)c3ccccc3-c3ccccc32)OCCCc2cccc(C)n2)n1`, for which half-maximal inhibition in test [1] (IC50) was put at 45 nM.
Regarding `CC(C)COP(=O)(CCCCC1(C(=O)NCC(F)(F)F)c2ccccc2-c2ccccc21)OCC(C)C`, the IC50 in test [1] was 55 nM.
`CCCCOP(=O)(CCCCC1(C(=O)OC)c2ccccc2-c2ccccc21)OCCCC` came in with an IC50 in test [1] of 450 nM.
Still for that read-out and setting: in the case of `C=CCC1(C(=O)NCC)c2ccccc2-c2ccccc21` it was 2200 nM.
The compound `CCCCOP(=O)(CCCCCC1(C(=O)NCC(F)(F)F)c2ccccc2-c2ccccc21)OCCCC` yielded an IC50 in test [1] of 65 nM.
As to `CCCCOP(=O)(CCCCC1(C(=O)NCCc2ccc(OC)cc2)c2ccccc2-c2ccccc21)OCCCC`, the figures for the EC50 in the test with HepG2 [3] and with HepG2 [4] were 23 nM and more than 330 nM, respectively. Moreover, inhibition in test [1] was half-maximal at 21 nM (IC50). In the test on Rattus norvegicus [11], the Inhibition is 15%.
`CCCCOP(=O)(CCCSc1nc2ccc(OCC)cc2o1)OCCCC` yielded an IC50 in test [1] of 5000 nM.
In [1], `CCCCOP(=O)(CCCSc1nc2cc(OCC)ccc2[nH]1)OCCCC` showed an IC50 of 10000 nM.
Compound `CCCCOP(=O)(CCCSc1nc2ccc(OCC)cc2n1C)OCCCC` displayed an IC50 in test [1] of 6000 nM.
For `CCCCOP(=O)(CCCCSc1nc2ccc(OCC)cc2s1)OCCCC`, the IC50 in test [1] is 12000 nM.
Consider `CCCCOP(=O)(CCCCC1(C(=O)NCCC)c2ccccc2-c2ccccc21)OCCCC`, for which the EC50 with HepG2 [3] was found to be 100 nM; with HepG2 [4], 8000 nM. For the same compound, the ED30 in the test on Rattus norvegicus [7] amounted to 15 mg/kg. Also, in the test on Rattus norvegicus [12], the result was inactive. This compound also displayed an IC50 in [1] of 14 nM.
Compound `CC(C)(C)COP(=O)(CCCCC1(C(=O)NCC(F)(F)F)c2ccccc2-c2ccccc21)OCC(C)(C)C` gave an IC50 in [1] of 33 nM.
Consider `CCCCOP(=O)(CCCSc1nc2ccc(OCC)cc2s1)OCCCC`, for which the half-maximal effective concentration (EC50) was found to be 3900 nM in the test on HepG2 [5] and 13200 nM in the test with HepG2 [6]. In addition, the IC50 in test [1] is 4500 nM.

By IC50 is commonly meant the concentration that inhibits the measured activity by half. Higher therefore signals weaker potency. In general, Inhibition refers to the percentage by which the read-out fell short of the control. Higher therefore signals strong suppression. A word on the EC50: it is the concentration that produces a half-maximal response. Higher therefore signals a less potent agent.
